Assay results as given in US4959182A, “Method and compositions providing enhanced chemiluminescence from 1,2-dioxetanes” (priority 1989, dated 1990).
Counter-ions that a name gives are not always drawn. Like-named read-outs stand apart in the source and are kept apart here.

What was measured:
[1] = assay type: physicochemical; conditions: for half-life: in xylene, read-out: t1/2 at 25° C. (converted); for half-life / k(sec^-1) at 25° C.: 25° C.
Experimental: Rates for thermal decomposition of the stable dioxetanes were monitored by the decay of chemiluminescence of aerated solutions. A cylindrical Pyrex vial equipped with magnetic stir bar was filled with 3-4 mL of the reaction solvent, sealed with a Teflon-lined screw cap and placed in the thermostatted sample block of the chemiluminescence-measuring luminometer. Temperature control was provided by an external circulating water bath. Appropriate values for the instrument gain and optical slit size were selected. […]. The vial was sealed with a Teflon-lined screw cap to prevent evaporation when high temperatures were used. Measurement of the signal was begun by opening the shutter. The chemiluminescent decay was generally recorded for at least three half-lives. Calculation of the first-order rate constant (k) from the In (Intensity) vs. time data was performed by a computer program utilizing a standard least-squares treatment. The correlation coefficient (r) was typically at least 0.999 and k varied less than 5% between replicate samples.
Activation parameters for decomposition of the dioxetanes were calculated from plots of In k vs. 1/T (Arrhenius eq.) or In k/t vs. 1/T (Eyring eq.) by a standard least-squares linear regression analysis.
Activation Energies for Thermal Decomposition of Dioxetanes

[2] = Base-triggered chemiluminescence of dioxetanes 2a/2b in DMSO, water, CTAB micelles and micelles with fluorescent co-surfactant
Description: The chemiluminescence quantum yield (.PHI.CL) for the decomposition of dioxetanes is defined as the ratio of einsteins of chemiluminescence emitted to moles of dioxetane decomposed. Sufficient energy is released during the reaction from the reaction enthalpy (ΔHR) plus the Arrhenius activation energy (Ea) to populate the singlet excited state of one of the carbonyl cleavage products. Therefore, the maximum quantum yield is 1.0. Another parameter of interest is the chemiexcitation quantum yield (.PHI.CE) which is defined as the ratio of excited states formed to dioxetane decomposed. The chemiexcitation quantum yield is related to the chemiluminescence quantum yield via the fluorescence quantum yield of the dioxetane cleavage (.PHI.F) through the equation: .phi.CL =.phi.CE X .phi.F.
(§1) The same procedure as those employed in the measurement of the decay kinetics was used for the determination of chemiluminescence quantum yields with the following modifications. An accurately measured aliquot of a dioxetane stock solution of known concentration was added to 3 mL of the pre-thermostatted organic solvent or aqueous buffer. The reaction was then triggered by adding the appropriate chemical reagent or enzyme. The total light intensity was integrated by a photon-counting luminometer using an RCA A-31034A gallium-arsenide PMT cooled to -78° C.
Spectra of the chemiluminescence from chemically or enzymatcally triggered dioxetanes were obtained by conducting the reaction in a 1-cm square quartz cuvette in the sample compartment of a Spex Fluorolog spectrofluorometer at ambient temperature. Correction for the decay of the chemiluminescence intensity during the wavelength scan was made by accumulating the spectrum in a ratio mode so that the observed spectrum was divided by the signal from an auxiliary detector (EMI 9781B) which measures the total signal as a function of time. The monochromator bandpass was typically 18 nm. For weakly emitting samples, several identical scans were performed and added together to improve the signal-to-noise ratio.
1. Triggering the Chemiluminescence of Hydroxy-Substituted Dioxetane 2a with Base.
2. […] Cationic surfactants such as cetyltrimethylammonium bromide (CTAB) can be used to increase rates for chemical triggering of chemiluminescence from appropriately substituted dioxetanes in aqueous solution. […] The dioxetane is solubilized in the micelles formed by the surfactant and NaOH is added to initiate the chemiluminescence. […] Typically, the experiments were carried out with [2b]=9.1×10^-5 M, [CTAB]=2×10^-3 M, and [OH^- ]=9.1×10^-5 M at 37° C.
Similar experiments were conducted with the benzothiazamide surfactant 4. […] Enzymatic Triggering of Phosphate-Substituted Dioxetane 2c.

[3] = cited from earlier work
S-antigen = assay: Chemiluminescent ELISA for S-antigen with dioxetane 2c and alkaline phosphatase conjugate
Description: 4. Chemiluminescent Enzyme-Linked Assays. Enzymatic triggering of appropriately substituted dioxetanes provides an ultrasensitive detection method for enzyme-linked biological assays. For example, phosphate-substituted dioxetane 2c can be used with enzyme linked immunoassays and DNA probes that utilize alkaline phosphatase as the marker for detection. Previous detection methods make use of substrates which develop a color or become fluorescent upon reaction with this enzyme. The sensitivity of the chemiluminescent technique with dioxetane 2c is illustrated by an enzyme-linked immunosorbant assay (ELISA) for the retinal protein, S-antigen. Using procedures of L. A. Donoso (L. A. Donoso, C. F. Merryman, K. E. Edelberg, R. Naids, and C. Kalsow, Investigative Ophthalmology & Visual Science, 26, 561 (1985)), a series of 7 Immulon™ wells were coated with varying amounts of S-antigen (112, 56, 28, 14, 7, 3, 1.3 ng), reacted with a monoclonal antibody (MAbA9-C6) developed in mouse, and finally reacted with anti-mouse IgG coupled to alkaline phosphatase. A chemiluminescence assay of each well was then conducted individually by adding 100 μL of 221 buffer (0.75 M, pH 9.1) containing Mg(OAc)2 (8.0×10^-4 M), CTAB (1.13×10^-3 M), and fluorescein surfactant 3 (5.6×10^-5 M). […] The reagent background luminescence is very low and constant at 15 - 20 counts/sec (FIG. 13). […] Following the experiments with the luminometer, the wells containing the same solution were subsequently used for a photographic detection experiment (FIG. 15). The 7 wells were placed in a holder and incubated for 30 minutes at 37° C. and then photographed at that temperature with ASA 3000 Polaroid™Type 57 film for 15 min in a light-tight incubator. […] The reproducibility of the photographic assay is illustrated in FIG. 16. Four wells coated with 50 ng of antigen were treated with buffer and dioxetane as above, incubated for 1 hour at 45° C., and then photographed with the film for 30 sec at that temperature.

[4] = system: Alkaline Phosphatase from Bovine Intestinal Mucosa; assay: Triggering the chemiluminescence of 2c with alkaline phosphatase from bovine intestinal mucosa; assay type: biochemical
Experimental: as §1
2. Triggering the Chemiluminescence of 2c with Alkaline Phosphatase from Bovine Intestinal Mucosa. Alkaline phosphatase from bovine intestinal mucosa was obtained from Sigma Chemical Co. as a suspension of 5.1 mg of protein per mL of 3.2 M (NH4)2 SO4 solution. […] 3. Triggering the Chemiluminescence of 2c with Alkaline Phosphatase: Enhanced Chemiluminescence Efficiency via Intermolecular Energy Transfer in Aqueous Micelles. […] Alkaline phosphatase experiments with dioxetane 2c were conducted at 37° C. with 3 mL of a solution containing: 2c (4.3×10^-5 M), 221 buffer (0.75 M, pH 9.1), Mg(OAc)2 (8.0×10^-4 M), CTAB (1.13×10^-3 M), and fluorescein surfactant 3 (5.6×10^-5 M).
To test the sensitivity of this chemiluminescence method for evaluating concentrations of alkaline phosphatase in solution, a series of experiments were carried out using enzyme stock solutions prepared by dilutions of the commercial sample obtained from Sigma. A conservative estimate of the concentration of phosphatase in the sample was made by assuming that the 5.1 mg of protein per mL in the sample was 100% pure alkaline phosphatase. A molecular weight of 140,000 as also used in calculating molar amounts of enzyme. The conditions were the same as described above with 2c, CTAB, and fluorescer 3 except that the final quantities of enzyme in the 3 mL solutions were:
Enzymatic triggering experiments such as those described above were also carried out in Immumlon™ microtitre wells from Dynatech, Inc. made of transparent polystyrene. The wells were used individually and placed in a light-tight holder which could be thermostatted. The chemiluminescence was detected at the bottom of the well using a fiber optic connected to the photon-counting luminometer described previously. This experimental set-up allowed much smaller reaction volumes to be used. For example, a series of experiments using dioxetane 2c, CTAB, and 3 in 200 μL of 221 buffer with amounts of alkaline phosphatase ranging from 5×10^-15 to 2×10^-18 moles (or 2 attomoles) were carried out. […] A more realistic assumption for the purity of the enzyme sample might be 10%.

[5] = system: Alkaline Phosphatase from Human Blood Serum; assay: Triggering the chemiluminescence of 2c with alkaline phosphatase from human blood serum; assay type: biochemical
Experimental: 1. Triggering the Chemiluminescence of 2c with Alkaline Phosphatase from Human Blood Serum. A stock solution of dioxetane 2c was prepared in dioxane/water (1:1 v/v) by photooxygenation of 1c. A sample of fresh blood was drawn from a healthy donor and the red blood cells removed by centrifugation to provide serum for the experiments. Treatment of 3 mL of a 10^-5 M solution of 2c in 0.75 M 2-amino-2-methyl-1-propanol (221) buffer (pH 10.3) at 37° C. with 100 μL of serum led to the typical intensity vs. time profile shown in FIG. 3 where the serum is injected at time zero. Under these conditions the light intensity reaches a constant level of approximately 2.3×10^4 counts/sec. The background luminescence signal from non-enzymatic hydrolysis of 2c is less than 0.05% of the enzyme-generated value. […] The light intensity at any other time point can also be conveniently used to provide a direct measure of the enzyme concentration (FIG. 5). [drawing 31]

[6] = Fluoride-triggered chemiluminescence of silyl-protected dioxetane
Description: However, the chemiluminescent decomposition of this dioxetane can be conveniently triggered at room temperature by removal of the silyl-protecting with fluoride ion to generate the unstable, aryloxide form which cleaves to yield intense blue light.

[7] = thermal decomposition in xylene
[8] = base, CTAB 1.5×10^-3 M with fluorescein surfactant 3 (9×10^-5 M), 37° C.
[9] = benzothiazamide surfactant 4 as co-surfactant, similar experiments with 2b/CTAB/base

Compound: COC1(c2cccc(OC(C)=O)c2)OOC12C1CC3CC(C1)CC2C3 (centres unmarked) [2b, 4-(3-Acetoxyphenyl)-4-methoxyspiro[1,2-dioxetane-3,2'-adamantane]]
- half-life [1]: 4750 days
- Ea [1, 7]: 30.4
- Log A [1, 7]: 13.6
- k(sec^-1) at 25° C. [1, 7]: 1.73e-09 s⁻¹
- increase in the chemiluminescence quantum yield ([2]; CTAB above cmc vs water, 37° C.): 19 fold
- chemiluminescence quantum yield (.PHI.CL) ([2]; base in DMSO): 0.25
- light yield (chemiluminescence quantum yield) ([2]; base in water): 8.9×10^-6
- chemiluminescence efficiency [2, 8]: 1.4%
- chemiluminescence quantum yield (.PHI.CL) [2, 8]: 0.014
- chemiluminescence quantum yield (.PHI.Cl) ([2]; base, CTAB above critical micelle concentration, 37° C.): 1.7×10^-4
- increase over the luminescence in the absence of CTAB and 3 ([2]; base, CTAB with fluorescein surfactant 3, 37° C.): 500 fold

Compound: Oc1ccc(C23OCCOC2(c2ccccc2)OO3)cc1 (centres unmarked) [deprotonated dioxetane (X=O^-)]
- decomposition rate relative to protonated form (X=OH) ([3]; 25° C.): 5.7×10^6 times

Compound: CCCCCCCCCCCCCCCCNC(=O)c1nc2ccc(O)cc2s1 [compound 4, 1-Hexadecyl-6-hydroxy-2-benzothiazamide]
- chemiluminescence efficiency [2, 9]: 0.3%
- λmax [2, 9]: 506 nm

Compound: COC1(c2cccc(O)c2)OOC12C1CC3CC(C1)CC2C3 (centres unmarked) [aryloxide-substituted dioxetane]
- half-life (aryloxide form, 25° C.): 5 s

Compound: COC1(c2cccc(OP(=O)(O)O)c2)OOC12C1CC3CC(C1)CC2C3 (centres unmarked) [2c, 4-Methoxy-4-(3-phosphatephenyl)spiro[1,2-dioxetane-3,2'-adamantane], disodium salt]
- Ea ([1]; Arrhenius plot, o-xylene, 80° to 120° C.): 32.5 kcal/mol
- half-life [1]: 6940 days
- Ea [1, 7]: 32.5
- Log A [1, 7]: 14.9
- k(sec^-1) at 25° C. [1, 7]: 1.19e-09 s⁻¹
- integrated light intensity vs amount of antigen (S-antigen; 1.3 to 112 ng S-antigen): correlates with the amount of antigen coated on the well
- reagent background luminescence (S-antigen; 2c 1.36×10^-4 M, CTAB and 3, pH 9.1, 37° C.): 15 - 20 counts/sec
- photographic detection, control well with buffer and dioxetane only (S-antigen; ASA 3000 Polaroid film): not visible
- period of chemiluminescence ([4]; 12 pg/mL protein, CTAB and 3, 37° C.): 45 min
- detection of alkaline phosphatase ([4]; 200 μL 221 buffer, CTAB and 3, enzyme purity of 10% assumed): less than 0.2 attomoles
- chemiluminescence quantum yield ([4]; 221 buffer pH 9.1, 37° C., no CTAB): 3.1×10^-5
- period over which light intensity increases ([4]; CTAB and fluorescer, depending on enzyme concentration): 30 to 60 min
- background signal from non-enzymatic hydrolysis ([4]; buffer/co-micelle environment): only a few
- chemiluminescence quantum yield (.PHI.Cl) ([4]; with CTAB (1.13×10^-3 M)): 2.1×10^-4
- increase compared to the enzymatic reaction in the absence of CTAB and 3 ([4]; with CTAB and fluorescein surfactant 3): 500 fold
- chemiluminescence quantum yield (.PHI.Cl) ([4]; with CTAB and fluorescein surfactant 3 (5.6×10^-5 M), pH 9.1, 37° C.): 0.015
- chemiluminescence efficiency ([4]; with CTAB and fluorescein surfactant 3, pH 9.1, 37° C.): 1.5%
- light intensity (constant level) ([5]; 10^-5 M 2c, 100 μL serum, 221 buffer pH 10.3, 37° C.): approximately 2.3×10^4 counts/sec
- light intensity at the plateau vs enzyme concentration ([5]; 100 to 1 μL of serum): directly proportional to the enzyme concentration
- background luminescence signal from non-enzymatic hydrolysis, of enzyme-generated value ([5]; 221 buffer pH 10.3, 37° C.): less than 0.05%

Compound: Oc1ccc(C23OCCOC2(c2ccccc2)OO3)cc1 (centres unmarked) [hydroxy-substituted dioxetane (X=OH)]
- half-life for decomposition at room temperature ([3]; 25° C.): 2.38 days
- luminescence with base ([3]; base at -30° C.): a flash of blue light
- luminescence upon heating ([3]; elevated temperatures): very low levels of luminescence

Compound: COC1(c2cccc(O[Si](C)(C)C(C)(C)C)c2)OOC12C1CC3CC(C1)CC2C3 (centres unmarked)
- decomposition on the laboratory bench (in o-xylene, several months): no detectable decomposition
- activation energy (thermal decomposition): 28.4 kcal/mol
- chemiluminescence efficiency [6]: 25%
- chemiluminescence quantum yield [6]: 0.25
- efficiency for the formation of the singlet excited ester ([6]; corrected for fluorescence quantum yield of the ester): 57%
- maximum of the chemiluminescence spectrum ([6]; fluoride, DMSO): 470 nm
